According to the supplement of paper PMC10307832:

How the values were obtained:
Experiment in all cases: relative viability (nuclei count vs DMSO), 5 days (fraction); higher = more cells survive
Afatinib + Navitoclax = compound: CN(C)C/C=C/C(=O)Nc1cc2c(Nc3ccc(F)c(Cl)c3)ncnc2cc1O[C@H]1CCOC1 [Afatinib] + CC1(C)CCC(c2ccc(Cl)cc2)=C(CN2CCN(c3ccc(C(=O)NS(=O)(=O)c4ccc(N[C@H](CCN5CCOCC5)CSc5ccccc5)c(S(=O)(=O)C(F)(F)F)c4)cc3)CC2)C1 [Navitoclax] (partner 0.5 µM)
How it was run: (§1)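 For relative viability, nuclei counts in treated wells were divided by those in vehicle wells. Lung cancer cell lines had been pin-tool dosed in 1536-well plates the day after seeding and cultured for 5 days, then fixed and stained in one step (final 0.05% Triton X-100, 1% formaldehyde, 1 ug/ml Hoechst) and imaged at 4×. Doses were one drug alone or a fixed anchor-drug dose plus five library-drug doses (not always all listed) in √10 steps, and values are duplicate-plate medians.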

Afatinib + Trametinib = compound: CN(C)C/C=C/C(=O)Nc1cc2c(Nc3ccc(F)c(Cl)c3)ncnc2cc1O[C@H]1CCOC1 [Afatinib] + CC(=O)Nc1cccc(-n2c(=O)n(C3CC3)c(=O)c3c(Nc4ccc(I)cc4F)n(C)c(=O)c(C)c32)c1 [Trametinib] (partner 0.02 µM)
How it was run: as §1

Afatinib + Phenformin = compound: CN(C)C/C=C/C(=O)Nc1cc2c(Nc3ccc(F)c(Cl)c3)ncnc2cc1O[C@H]1CCOC1 [Afatinib] + N=C(N)NC(=N)NCCc1ccccc1 [Phenformin] (partner 250 µM)
How it was run: as §1

Afatinib + Pemetrexed = compound: CN(C)C/C=C/C(=O)Nc1cc2c(Nc3ccc(F)c(Cl)c3)ncnc2cc1O[C@H]1CCOC1 [Afatinib] + Nc1nc2[nH]cc(CCc3ccc(C(=O)N[C@@H](CCC(=O)O)C(=O)O)cc3)c2c(=O)[nH]1 [Pemetrexed] (partner 0.2 µM)
How it was run: as §1

Row | Cell Line | relative viability (Afatinib + Navitoclax; first compound 0.005 µM) | relative viability (Afatinib + Navitoclax; first compound 0.01581 µM) | relative viability (Afatinib + Navitoclax; first compound 0.05 µM) | relative viability (Afatinib + Navitoclax; first compound 0.1581 µM) | relative viability (Afatinib + Navitoclax; first compound 0.5 µM) | relative viability (Afatinib + Trametinib; first compound 0.005 µM) | relative viability (Afatinib + Trametinib; first compound 0.01581 µM) | relative viability (Afatinib + Trametinib; first compound 0.05 µM) | relative viability (Afatinib + Trametinib; first compound 0.1581 µM) | relative viability (Afatinib + Trametinib; first compound 0.5 µM) | relative viability (Afatinib + Phenformin; first compound 0.005 µM) | relative viability (Afatinib + Phenformin; first compound 0.01581 µM) | relative viability (Afatinib + Phenformin; first compound 0.05 µM) | relative viability (Afatinib + Phenformin; first compound 0.1581 µM) | relative viability (Afatinib + Phenformin; first compound 0.5 µM) | relative viability (Afatinib + Pemetrexed; first compound 0.005 µM) | relative viability (Afatinib + Pemetrexed; first compound 0.01581 µM) | relative viability (Afatinib + Pemetrexed; first compound 0.05 µM) | relative viability (Afatinib + Pemetrexed; first compound 0.1581 µM) | relative viability (Afatinib + Pemetrexed; first compound 0.5 µM)
1 | NCI-H441 | 0.904 | 0.516 | 0.446 | 0.399 | 0.294 | 0.536 | 0.347 | 0.396 | 0.325 | 0.384 | 0.92 | 0.748 | 0.916 | 0.736 | 0.797 | 0.255 | 0.246 | 0.25 | 0.283 | 0.274
2 | NCI-H1793 | 0.404 | 0.348 | 0.356 | 0.357 | 0.32 | 0.436 | 0.377 | 0.432 | 0.345 | 0.401 | 0.244 | 0.316 | 0.325 | 0.273 | 0.321 | 0.814 | 0.582 | 0.584 | 0.582 | 0.503
3 | NCI-H23 | 0.973 | 0.843 | 0.881 | 0.735 | 0.814 | 0.358 | 0.323 | 0.359 | 0.331 | 0.345 | 0.847 | 0.825 | 0.808 | 0.772 | 0.718 | 0.667 | 0.609 | 0.586 | 0.704 | 0.567
4 | HARA | 1.17 | 1.12 | 1.06 | 0.677 | 0.866 | 0.417 |  | 0.38 | 0.311 | 0.38 | 0.391 | 0.27 | 0.327 | 0.376 | 0.375 | 0.21 |  | 0.185 | 0.217 | 0.225
5 | NCI-H1792 | 0.745 | 0.537 | 0.587 | 0.629 | 0.625 | 0.56 | 0.393 | 0.562 | 0.538 | 0.427 | 0.16 | 0.198 | 0.398 | 0.2 | 0.238 | 0.781 | 0.647 | 0.751 | 0.824 | 0.522
6 | NCI-H1703 | 1.22 | 0.95 | 1.34 | 0.746 | 0.641 |  |  |  |  |  |  |  |  |  |  |  |  |  |  | 
7 | NCI-H2342 |  |  |  |  |  | 0.761 | 0.723 | 0.726 | 0.74 | 0.672 | 0.641 | 0.488 | 0.575 | 0.519 | 0.477 | 0.763 | 0.762 | 0.706 | 0.777 | 0.747
8 | CAL-12T | 1.32 | 1.12 | 1.47 |  | 0.648 | 0.278 | 0.273 | 0.286 | 0.247 | 0.261 | 0.57 | 0.388 | 0.361 | 0.244 | 0.407 | 1.22 | 0.928 | 1.46 | 0.491 | 0.855
9 | NCI-H727 | 0.371 | 0.349 | 0.407 | 0.345 | 0.353 | 0.391 | 0.359 | 0.393 | 0.299 | 0.34 | 0.493 |  | 0.299 | 0.613 | 0.442 |  |  |  |  | 
10 | NCI-H2085 | 0.985 | 1.03 | 0.994 | 0.808 | 0.936 | 0.433 | 0.507 | 0.692 | 0.513 | 0.457 | 0.614 | 0.629 | 0.606 | 0.509 | 0.542 | 0.821 | 0.671 | 0.842 | 0.681 | 0.699
11 | NCI-H1395 | 1.31 | 0.999 | 1.12 | 1.17 | 1.2 | 1.13 | 0.832 | 1.09 | 0.911 | 1.06 | 0.476 | 0.41 | 0.447 | 0.442 | 0.449 | 0.951 | 0.811 | 0.827 | 0.92 | 0.752
12 | NCI-H1648 |  |  |  |  |  | 0.423 | 0.462 | 0.316 | 0.287 | 0.246 |  |  |  |  |  | 0.99 | 1.1 | 0.458 | 0.431 | 0.426
13 | NCI-H460 | 1.21 | 1.06 | 1.14 | 1.18 | 1.11 | 0.161 | 0.139 | 0.187 | 0.133 | 0.136 | 0.549 | 0.517 | 0.536 | 0.558 | 0.498 | 0.0534 | 0.0601 | 0.0633 | 0.0503 | 0.0638
14 | A549 | 1.3 | 1.11 | 1.2 | 1.09 | 1.16 |  |  |  |  |  | 0.152 | 0.154 | 0.192 | 0.162 | 0.15 |  |  |  |  | 
15 | IA-LM | 0.689 | 0.821 | 0.906 | 0.796 | 0.933 |  |  |  |  |  |  |  |  |  |  |  |  |  |  | 
16 | EKVX | 0.655 | 0.46 | 0.349 | 0.26 | 0.197 | 0.255 | 0.246 | 0.216 | 0.16 | 0.162 | 0.218 | 0.222 | 0.215 | 0.129 | 0.197 | 0.318 | 0.271 | 0.254 | 0.187 | 0.185
17 | ChaGo-K-1 | 1.12 | 0.707 | 0.979 | 0.826 | 1.05 | 0.922 | 0.911 | 0.885 | 0.866 | 0.813 | 0.474 | 0.466 | 0.444 | 0.45 | 0.431 | 0.246 | 0.262 | 0.268 | 0.257 | 0.247
18 | NCI-H1755 | 0.957 | 0.981 | 1.08 | 0.995 | 0.987 | 0.767 | 0.792 | 0.807 | 0.679 | 0.792 | 0.677 | 0.663 | 0.823 | 0.578 | 0.617 | 0.405 | 0.611 | 0.463 | 0.402 | 0.421
19 | NCI-H2228 | 0.864 | 0.906 | 0.865 |  | 0.51 | 0.833 | 0.395 | 0.544 | 0.467 | 0.466 | 0.279 | 0.273 | 0.31 | 0.257 | 0.242 | 0.283 | 0.306 | 0.334 | 0.298 | 0.322
